The results in this text go back to US8183409B2, “High yield and rapid synthesis methods for producing metallo-organic salts” (Osteologix A/S, priority 2004, dated 2012).

For the data set the following is noted: pH 7.5.

For the compound `O=C([O-])/C=C\C(=O)[O-].[Sr+2]` [Maleate, strontium maleate], the “solubility in buffered solution compared with pure water” value was “decreased solubility”.
